Article PMC3167814, “Relationships between Membrane Binding, Affinity and Cell Internalization Efficacy of a Cell-Penetrating Peptide: Penetratin as a Case Study” (PLoS ONE, 2011)

Columns and labels:
[1] = PWR, synthetic lipid model membrane; format: binding; conditions: hyperbolic fit, apparent Kd, repeated 3 times
Text: To get some insight into the role of the lipid component in the cell surface regarding penetratin interaction, lipid model systems composed of varied lipid composition were used. Both zwitterionic (egg PC), anionic (egg PG -phosphatidylglycerol-and egg PC/DOPG -phosphatidylglycerol/dioleoylphosphatidylglycerol-) and lipids with propensity to form negative membrane curvature (egg PC/DOPE -dioleoylphosphatidylethanolamine-) were chosen in order to understand the role of electrostatic interactions and membrane curvature in the interaction of penetratin with the lipid bilayer. For all the lipid systems, penetratin interaction led to spectral shifts in both the p- and s-polarisation. As in the case of cell membrane fragments studies, presented above, two distinct responses were observed depending on the membrane composition: 1) in the case of egg PC and egg PC/DOPE, a two phase binding process with negative shifts followed by positive shifts (for both polarizations) which equilibrated after certain concentrations were observed; 2) in the case of egg PG, egg PC/POPG (1-palmitoyl-2-oleoyl-sn-glycero-3-phospho-(1′-rac-glycerol)), penetratin led to a single binding process with positive shifts for both polarizations (see Table 1 for the direction and magnitude of the spectral shifts). […] The electrostatic interaction played an important role in penetratin interaction with the membrane, but was not the only relevant factor, the shape of the lipid headgroup and/or the lipid curvature seemed to also play a key role in (this will be further discussed below).
For the membrane interaction where two binding processes were observed, as in the case of egg PC, egg PC/DOPE, the first binding was associated with negative spectral shifts for both p- and s-polarizations, which corresponded mainly to mass changes (90–100%). […] In the case where only one binding event was observed (egg PG and egg PC/DOPG) mass changes again dominated the spectral changes (85 to 91%) (Table 5).
Here, the graphical analysis method was employed.
(§1) The sensitivity factor (Sf), a measure of the sensitivity of the instrument for the s- pol relative to p-pol ( [drawing 2] ), necessary to determine the mass and anisotropy axes has been determined, for the prism used in those experiments, to be 1.35 [46].

[2] = test system: WT cell membrane fragments; experiment: PWR, lipid bilayer composed of cell membrane fragments; format: binding, Chinese Hamster; conditions: WT membrane fragments in egg PC planar bilayer; PWR shifts on incremental peptide addition, hyperbolic fit, apparent Kd; repeated 3 times
Text: (§2) Homogenized membranes were obtained by osmotic and mechanical disruption of cells. A method to deposit cell membrane fragments on the PWR cell sample was developed as follows. The deposition of a membrane composed of cell membrane fragments into the PWR resonator led to spectral changes, namely large positive spectral shifts for both p- and s-polarizations relative to the buffer spectrum (Figure 2, panels A and B) indicating the immobilization of a significant amount of mass on the sensor surface. It should be noted that the shifts obtained for p-pol were considerably larger than the ones obtained for s-pol (s/p ratio about 0.7).
(§3) Regarding the direction of the PWR spectral shifts, two types of behavior were observed depending on the membrane composition: 1) in the case of GAG^neg cells, penetratin led to a two phase binding process with negative shifts followed by positive shifts (for both polarizations) which equilibrated after certain concentrations; 2) in the case of WT and SA^neg cells, penetratin led to a single binding process with positive shifts for both polarizations (see panels C and D in Figure 2 for penetratin interaction with WT cell membranes and Table 1 for the direction and magnitude of the spectral shifts). […] Penetratin affinity to lipid bilayers and membrane fragments could be calculated using PWR by measuring the resonance minimum position shifts upon incremental addition of peptide to the cell sample [39]. […]
(§4) The kinetics of penetratin interaction with the membrane was determined by following the shift in the resonance minimum position as a function of time for a peptide concentration slightly above the Kd value. […] Rate constants were determined for the second part of the signal (the resonance angle increase) and varied upon membrane composition (Figure 2 and Table 3). […]
as §1

[3] = test system: GAG^neg cell membrane fragments; experiment: as above; format: binding, Chinese Hamster; conditions: GAG^neg membrane fragments in egg PC planar bilayer; PWR shifts on incremental peptide addition, hyperbolic fit, apparent Kd; repeated 3 times
Text: as §2, §3, §4, §1

[4] = test system: SA^neg cell membrane fragments; experiment: as above; format: binding, Chinese Hamster; conditions: SA^neg membrane fragments in egg PC planar bilayer; PWR shifts on incremental peptide addition, hyperbolic fit, apparent Kd; repeated 3 times
Text: as §2, §3, §4, §1

[5] = test system: Wild type Chinese Hamster Ovary CHO-K1 cells (WT)
Protocol: (§5) As already reported, the quantity or concentration of internalized and membrane-bound penetratin could be differentiated and measured by MALDI mass spectrometry, [33], [34]. […] Using the reported protocol, the amount of internalized penetratin was quantified in one million cells that were incubated with 1 or 10 µM penetratin for one hour. After washing steps, the extracellular membrane-bound peptide was degraded by trypsin digestion, [33], [34] so that only the internalized peptide was quantified. […] The extracellular concentration could not be lowered further because of the lack of sensitivity of the MALDI-MS method for accurate measurements of sub-picomole quantities of penetratin.
(§6) Wild type Chinese Hamster Ovary CHO-K1 cells (WT), xylosetransferase- or GAG-deficient CHO-pgsA745 [59] cells (GAG^neg) and sialic acid deficient CHO-lec2 [60] cells (SA^neg) were cultured in Dulbecco's modified Eagle's medium (DMEM) supplemented with 10% fetal calf serum (FCS), penicillin (100,000 IU/L), streptomycin (100,000 IU/L), and amphotericin B (1 mg/L) in a humidified atmosphere containing 5% CO2 at 37°C.
(§7) Cellular uptake was quantified using the method described by Burlina et al.. In this protocol, the studied peptide bears a tag composed of four glycine residues together with a biotin moiety for purification purposes. After one-hour incubation with the peptide and washing, a protease is added (0.05% trypsin in Tris-HCl 100 mM pH 7.5) in order to detach the cells and to degrade the membrane-bound peptide. This avoids overestimating the quantity of internalized peptide due to the presence of peptides attached to the outer leaflet of the membrane. The cells are then lysed (0.3% Triton) and boiled, and the cell lysate is incubated with streptavidin-coated magnetic beads to extract the peptide from the lysate. For membrane-bound peptide quantification, washings but no protease digestion was done and the cells were directly lysed. The peptides are eluted from the streptavidin-coated magnetic beads with a α-cyano-4-hydroxycinnamic acid matrix and spotted on the MALDI plate. Mass spectrometry is not a quantitative method per se, therefore an internal standard is added to the lysis solution. […] This allows the absolute quantification of internalized and membrane-bound peptide. […] The experiments were repeated at least three times independently.

[6] = test system: GAG-deficient CHO-pgsA745 cells (GAG^neg)
Protocol: as §5, §6, §7

[7] = test system: sialic acid deficient CHO-lec2 cells (SA^neg)
Protocol: as §5, §6, §7

[8] = 1 µM extracellular biotin-Gly4-tagged penetratin, one million cells, 1 h incubation, washings, trypsin degradation of membrane-bound peptide, MALDI-TOF MS with deuterated internal standard, repeated at least three times
[9] = 1 µM extracellular, 1 h, from internalized amount provided a cell volume of 1 pL

## H-RQIKIWFQNRRMKWKK-NH2 [penetratin, Penetratin]
[1]; Egg PC bilayer
  Kd: 28000 ± 2000 nM
[1]; Egg PC/DOPE bilayer
  Kd: 500 ± 10 nM
[1]; Egg PC/DOPG bilayer
  Kd: 1400 ± 30 nM
[1]; Egg PG bilayer
  Kd: 300 ± 20 nM
[2]
  Kd: 10 ± 3 nM
[3]
  Kd: 2000 ± 600 nM
[4]
  Kd: 300 ± 40 nM
[5]; [8]
  internalized peptide quantity: about 0.25 pmole
[5]; [9]
  intracellular penetratin concentration: about 0.25 µM
[6]; [8]
  internalized peptide quantity: about 0.25 pmole
[6]; [9]
  intracellular penetratin concentration: about 0.25 µM
[7]; [8]
  internalized peptide quantity: about 0.25 pmole
[7]; [9]
  intracellular penetratin concentration: about 0.25 µM
